Assay results published in patent publication US20110306635A1, “PYRIDINE COMPOUNDS AS SUBTYPE SELECTIVE MODULATORS OF ALPHA2B AND /OR ALPHA 2C […]” (ALLERGAN ,INC., priority 2009, published 2011).
pEC50: −log10 of the molar value.

Experiments:
Format in all cases: cell-based
[1] = molecular target: T1, alpha 2C adrenergic receptor (Homo sapiens, UniProt P18825); assay: RSAT (Receptor Selection and Amplification Technology) assay, alpha 2C; conditions: for pEC50: cells expressing alpha 2C receptor alone, receptor-mediated growth response; for RSAT efficacy, Alpha 2C: relative efficacy compared to a standard full agonist (value in parentheses)
T1 construct: expressed in transfected cells
T1 sequence (P18825 1-462): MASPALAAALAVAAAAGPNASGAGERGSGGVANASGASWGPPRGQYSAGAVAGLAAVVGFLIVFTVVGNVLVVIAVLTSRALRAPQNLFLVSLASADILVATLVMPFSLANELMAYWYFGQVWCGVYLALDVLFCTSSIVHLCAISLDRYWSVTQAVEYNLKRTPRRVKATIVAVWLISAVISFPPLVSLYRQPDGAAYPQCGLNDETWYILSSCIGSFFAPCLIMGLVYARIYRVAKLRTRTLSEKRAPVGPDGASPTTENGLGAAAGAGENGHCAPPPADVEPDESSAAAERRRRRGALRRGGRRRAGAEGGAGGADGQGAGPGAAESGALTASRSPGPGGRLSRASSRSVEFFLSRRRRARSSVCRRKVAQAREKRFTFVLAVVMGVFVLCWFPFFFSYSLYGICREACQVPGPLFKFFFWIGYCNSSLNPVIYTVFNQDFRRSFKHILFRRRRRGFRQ
Protocol: (§1) The compounds were synthesized and tested for alpha adrenergic activity using the Receptor Selection and Amplification Technology (RSAT) assay (Messier et. al., 1995, Pharmacol. Toxicol. 76, pp. 308-311). Cells expressing each of the alpha-2 adrenergic receptors alone were incubated with the Compound 1 and a receptor-mediated growth response was measured. A compound's activity is expressed as its relative efficacy compared to a standard full agonist (see table). Compound of this invention activates alpha-2B and alpha-2C receptors.
(§2) The results of the RSAT assay with several exemplary compounds of the invention are disclosed in Table 1 below together with the chemical formulas of these exemplary compounds. EC50 values are nanomolar.

[2] = molecular target: T2, alpha 2B adrenergic receptor (Homo sapiens, UniProt P18089); assay: RSAT (Receptor Selection and Amplification Technology) assay, alpha 2B; conditions: for pEC50: cells expressing alpha 2B receptor alone, receptor-mediated growth response; for RSAT efficacy, Alpha 2B: relative efficacy compared to a standard full agonist (value in parentheses)
T2 construct: expressed in transfected cells
T2 sequence (P18089 1-450): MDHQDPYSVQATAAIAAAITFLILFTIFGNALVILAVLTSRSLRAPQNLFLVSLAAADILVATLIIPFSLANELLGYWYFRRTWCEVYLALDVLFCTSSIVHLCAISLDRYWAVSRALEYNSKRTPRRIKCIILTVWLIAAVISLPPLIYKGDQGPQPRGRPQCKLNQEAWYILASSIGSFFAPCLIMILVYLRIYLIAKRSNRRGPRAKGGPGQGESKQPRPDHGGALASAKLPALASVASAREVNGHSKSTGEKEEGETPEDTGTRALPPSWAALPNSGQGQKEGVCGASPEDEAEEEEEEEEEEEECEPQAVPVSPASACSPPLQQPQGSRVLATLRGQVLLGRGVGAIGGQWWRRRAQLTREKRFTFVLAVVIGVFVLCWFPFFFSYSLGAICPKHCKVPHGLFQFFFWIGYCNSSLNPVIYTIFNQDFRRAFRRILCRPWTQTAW
Protocol: as §1, §2

[3] = molecular target: T3, alpha 2A adrenergic receptor (Homo sapiens, UniProt P08913); assay: RSAT (Receptor Selection and Amplification Technology) assay, alpha 2A; conditions: cells expressing alpha 2A receptor alone; receptor-mediated growth response
T3 construct: expressed in transfected cells
T3 sequence (P08913 1-465): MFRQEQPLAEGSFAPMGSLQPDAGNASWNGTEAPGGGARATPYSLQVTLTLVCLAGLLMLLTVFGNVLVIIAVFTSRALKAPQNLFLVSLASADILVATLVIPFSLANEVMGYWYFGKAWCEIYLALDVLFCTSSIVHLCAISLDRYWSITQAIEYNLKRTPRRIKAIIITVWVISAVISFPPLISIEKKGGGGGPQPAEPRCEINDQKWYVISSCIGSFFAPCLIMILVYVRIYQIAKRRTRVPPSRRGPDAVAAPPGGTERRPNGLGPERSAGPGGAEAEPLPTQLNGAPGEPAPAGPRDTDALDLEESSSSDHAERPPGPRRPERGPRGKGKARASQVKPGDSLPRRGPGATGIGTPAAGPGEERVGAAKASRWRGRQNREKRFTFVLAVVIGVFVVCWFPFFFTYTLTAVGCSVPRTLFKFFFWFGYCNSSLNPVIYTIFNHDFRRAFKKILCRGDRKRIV
Protocol: as §1, §2

Row | SMILES | pEC50 [1] | RSAT efficacy, Alpha 2C [1] | pEC50 [2] | RSAT efficacy, Alpha 2B [2] | RSAT EC50 (nM); efficacy, Alpha 2A [3]
1 | CC(c1c[nH]cn1)c1ccnc2c1CCCC2 (stereo not shown) [4-(1-(1H-imidazol-4-yl)ethyl)-5,6,7,8-tetrahydroquinoline] | 6.43 | 0.35 | 7.63 | 1.12 | Not active
2 | Cc1nccc(C(C)c2c[nH]cn2)c1C (stereo not shown) [4-(1-(1H-imidazol-4-yl)ethyl)-2,3-dimethylpyridine] | 5.89 | 0.35 | 7.78 | 0.99 | Not active
